Laboratory results: patent US6905841B2, “Enzymatic substrates for detecting Pseudomonas aeruginas” (Biomerieux S.A., priority 1999, dated 2005)
Like-named read-outs stand apart in the source and are kept apart here.

Columns and labels:
β-alanine aminopeptidase [1] = settings: Vibrio vulnificus; 1 strain tested; read after 22 to 24 hours
β-alanine aminopeptidase [2] = settings: Pseudomonas fluorescens; 2 strains tested; read after 22 to 24 hours
β-alanine aminopeptidase [3] = settings: Moraxella non liquefaciens; 2 strains tested; read after 22 to 24 hours
β-alanine aminopeptidase [4] = settings: Enterobacter aerogenes; 2 strains tested; read after 22 to 24 hours
β-alanine aminopeptidase [5] = settings: Enterobacter intermedius; 1 strain tested; read after 22 to 24 hours
β-alanine aminopeptidase [6] = settings: Enterococcus faecalis; 2 strains tested; read after 22 to 24 hours
β-alanine aminopeptidase [7] = settings: Escherichia coli; 2 strains tested; read after 22 to 24 hours
β-alanine aminopeptidase [8] = settings: Proteus vulgaris; 1 strain tested; read after 22 to 24 hours
β-alanine aminopeptidase [9] = settings: Serratia liquefaciens; 1 strain tested; read after 22 to 24 hours
β-alanine aminopeptidase [10] = settings: Citrobacter koseri; 1 strain tested; read after 22 to 24 hours
β-alanine aminopeptidase [11] = experiment: APIZYM-type test strips with β-alanyl-β-naphthylamide; type: cell-based; settings: Achroniobacter xylosoxidans spp. denitrificans; five strains
β-alanine aminopeptidase [12] = experiment: as above; type: cell-based; settings: Escherichia coli; five strains
β-alanine aminopeptidase [13] = experiment: as above; type: cell-based; settings: Moraxella lacunata; 4 strains
β-alanine aminopeptidase [14] = experiment: as above; type: cell-based; settings: Enterobacter aerogenes; five strains
β-alanine aminopeptidase [15] = experiment: as above; type: cell-based; settings: proches de Pasteurella; 4 strains
β-alanine aminopeptidase [16] = experiment: as above; type: cell-based; settings: Myroïdes spp.; five strains
β-alanine aminopeptidase [17] = experiment: as above; type: cell-based; settings: Chryseobacterium indologenes; five strains
β-alanine aminopeptidase [18] = experiment: as above; type: cell-based; settings: Moraxella lac. sp. liquefaciens; 7 strains
β-alanine aminopeptidase [19] = experiment: as above; type: cell-based; settings: Serratia marcescens; five strains
β-alanine aminopeptidase [20] = experiment: as above; type: cell-based; settings: Pseudomonas luteola; five strains
β-alanine aminopeptidase [21] = experiment: as above; type: cell-based; settings: Chryseobacterium balustinum; 1 strain
β-alanine aminopeptidase [22] = experiment: as above; type: cell-based; settings: Burkholderia cepacia; five strains
β-alanine aminopeptidase [23] = experiment: as above; type: cell-based; settings: Pseudomonas oryzihabitans; five strains
β-alanine aminopeptidase [24] = experiment: as above; type: cell-based; settings: Ochrobactrum anthropi; five strains
β-alanine aminopeptidase [25] = experiment: as above; type: cell-based; settings: Salmonella arizonae; five strains
β-alanine aminopeptidase [26] = experiment: as above; type: cell-based; settings: Vibrio alginolyticus; five strains
β-alanine aminopeptidase [27] = experiment: as above; type: cell-based; settings: Klebsiella pneumoniae, spp. pneumoniae; five strains
β-alanine aminopeptidase [28] = experiment: as above; type: cell-based; settings: Salmonella paratyphi A; five strains
β-alanine aminopeptidase [29] = experiment: as above; type: cell-based; settings: Pasteurella multocida; five strains
β-alanine aminopeptidase [30] = experiment: as above; type: cell-based; settings: Proteus mirabilis; five strains
β-alanine aminopeptidase [31] = experiment: as above; type: cell-based; settings: Enterobacter cloacae; five strains
β-alanine aminopeptidase [32] = experiment: as above; type: cell-based; settings: Alcaligenes faecalis/odorans; five strains
β-alanine aminopeptidase [33] = experiment: as above; type: cell-based; settings: Citrobacter diversus; five strains
β-alanine aminopeptidase [34] = experiment: as above; type: cell-based; settings: Plesiomonas shigelloïdes; five strains
β-alanine aminopeptidase [35] = type: cell-based; settings: out of the seventy nine (79) tested
β-alanine aminopeptidase [36] = experiment: APIZYM-type test strips with β-alanyl-β-naphthylamide; type: cell-based; settings: Proteus vulgaris; five strains
β-alanine aminopeptidase [37] = experiment: as above; type: cell-based; settings: Brevundimonas diminuta; five strains
β-alanine aminopeptidase [38] = experiment: as above; type: cell-based; settings: Achromobacter xylosoxidans, spp. xylosoxidans; five strains

NCCC(=O)c1c(N)cc(Cl)c(O)c1Cl
Number of negative results (β-alanine aminopeptidase [1]): 1
Number positive results (β-alanine aminopeptidase [1]): 0
Number of negative results (β-alanine aminopeptidase [2]): 1
Number positive results (β-alanine aminopeptidase [2]): 1
Number of negative results (β-alanine aminopeptidase [3]): 2
Number positive results (β-alanine aminopeptidase [3]): 0
Number of negative results (β-alanine aminopeptidase [4]): 2
Number positive results (β-alanine aminopeptidase [4]): 0
Number of negative results (β-alanine aminopeptidase [5]): 1
Number positive results (β-alanine aminopeptidase [5]): 0
Number of negative results (β-alanine aminopeptidase [6]): 2
Number positive results (β-alanine aminopeptidase [6]): 0
Number of negative results (β-alanine aminopeptidase [7]): 2
Number positive results (β-alanine aminopeptidase [7]): 0
Number of negative results (β-alanine aminopeptidase [8]): 1
Number positive results (β-alanine aminopeptidase [8]): 0
Number of negative results (β-alanine aminopeptidase [9]): 0
Number positive results (β-alanine aminopeptidase [9]): 1
Number of negative results (β-alanine aminopeptidase [10]): 1
Number positive results (β-alanine aminopeptidase [10]): 0

β-alanyl-β-naphthylamide
β-alanine aminopeptidase activity, result (β-alanine aminopeptidase [11]): negative
β-alanine aminopeptidase activity, result (β-alanine aminopeptidase [12]): negative
β-alanine aminopeptidase activity, result (β-alanine aminopeptidase [13]): negative
β-alanine aminopeptidase activity, result (β-alanine aminopeptidase [14]): negative
β-alanine aminopeptidase activity, result (β-alanine aminopeptidase [15]): negative
β-alanine aminopeptidase activity, result (β-alanine aminopeptidase [16]): negative
β-alanine aminopeptidase activity, result (β-alanine aminopeptidase [17]): negative
β-alanine aminopeptidase activity, result (β-alanine aminopeptidase [18]): negative
β-alanine aminopeptidase activity, result (β-alanine aminopeptidase [19]): negative
β-alanine aminopeptidase activity, result (β-alanine aminopeptidase [20]): negative
β-alanine aminopeptidase activity, result (β-alanine aminopeptidase [21]): negative
β-alanine aminopeptidase activity, result (β-alanine aminopeptidase [22]): positive
β-alanine aminopeptidase activity, result (β-alanine aminopeptidase [23]): negative
β-alanine aminopeptidase activity, result (β-alanine aminopeptidase [24]): positive
β-alanine aminopeptidase activity, result (β-alanine aminopeptidase [25]): negative
β-alanine aminopeptidase activity, result (β-alanine aminopeptidase [26]): negative
β-alanine aminopeptidase activity, result (β-alanine aminopeptidase [27]): negative
β-alanine aminopeptidase activity, result (β-alanine aminopeptidase [28]): negative
β-alanine aminopeptidase activity, result (β-alanine aminopeptidase [29]): negative
β-alanine aminopeptidase activity, result (β-alanine aminopeptidase [30]): negative
β-alanine aminopeptidase activity, result (β-alanine aminopeptidase [31]): negative
β-alanine aminopeptidase activity, result (β-alanine aminopeptidase [32]): negative
β-alanine aminopeptidase activity, result (β-alanine aminopeptidase [33]): negative
β-alanine aminopeptidase activity, result (β-alanine aminopeptidase [34]): negative
number of species found to possess β-alanine aminopeptidase activity (β-alanine aminopeptidase [35]): 6 species
β-alanine aminopeptidase activity, result (β-alanine aminopeptidase [36]): negative
β-alanine aminopeptidase activity, result (β-alanine aminopeptidase [37]): negative
β-alanine aminopeptidase activity, result (β-alanine aminopeptidase [38]): negative
